# Test results reported in US12077503B2, “Substituted cyclic amides and their use as herbicides” (FMC CORPORATION, priority 2015, dated 2024).
# Tests used:
# Assay type in all cases: in vivo
# corn (Zea mays) [1] = test: Test G Pre-Emergence Protocol; settings: Zea mays, pre-emergence, 312 h, evaluated after 13 days; for plant injury at 15.625 g/ha: 15.625 g ai/ha; for plant injury at 15.625 g/ha / plant injury at 250 g/ha: read-out: Corn damage rating (100=total damage to plant; 0=no damage to plant); for plant injury at 62.5 g/ha: 62.5 g ai/ha, 100=total damage to plant, 0=no damage to plant, read-out: plant damage rating, Corn; for plant injury at 250 g/ha: 250 g ai/ha
# Summary of the method: (§1)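 One day after sowing, pots are treated with a spray of test compound formulated in acetone/water 50:50 plus 0.5% Tween 20, giving 15.625, 62.5 or 250 g/ha. Evaluation on a 0–100 damage scale follows 13 days of glasshouse growth.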
# [2] = tested on: barnyardgrass (Echinochloa crus-galli); test: Test G Pre-Emergence Protocol; settings: Echinochloa crus-galli, pre-emergence, 312 h, evaluated after 13 days; for pest or weed control at 15.625 g/ha: 15.625 g ai/ha, read-out: Barnyard grass damage rating (100=total damage to plant; 0=no damage to plant); for pest or weed control at 62.5 g/ha: 62.5 g ai/ha, 100=total damage to plant, 0=no damage to plant, read-out: plant damage rating, Barnyardgrass; for pest or weed control at 250 g/ha: 250 g ai/ha, read-out: Barnyardgrass damage rating (100=total damage to plant; 0=no damage to plant)
# Summary of the method: as §1
# [3] = tested on: redroot pigweed (Amaranthus retroflexus); test: Test G Pre-Emergence Protocol; settings: Amaranthus retroflexus, pre-emergence, 312 h, evaluated after 13 days; for pest or weed control at 15.625 g/ha: 15.625 g ai/ha; for pest or weed control at 15.625 g/ha / pest or weed control at 250 g/ha: read-out: Pigweed, Redroot damage rating (100=total damage to plant; 0=no damage to plant); for pest or weed control at 62.5 g/ha: 62.5 g ai/ha, 100=total damage to plant, 0=no damage to plant, read-out: plant damage rating, Pigweed, Redroot; for pest or weed control at 250 g/ha: 250 g ai/ha
# Summary of the method: as §1
# [4] = tested on: giant foxtail (Setaria faberi); test: Test G Pre-Emergence Protocol; settings: Setaria faberi, pre-emergence, 312 h, evaluated after 13 days; for pest or weed control at 15.625 g/ha: 15.625 g ai/ha; for pest or weed control at 15.625 g/ha / pest or weed control at 250 g/ha: read-out: Foxtail, Giant damage rating (100=total damage to plant; 0=no damage to plant); for pest or weed control at 62.5 g/ha: 62.5 g ai/ha, 100=total damage to plant, 0=no damage to plant, read-out: plant damage rating, Foxtail, Giant; for pest or weed control at 250 g/ha: 250 g ai/ha
# Summary of the method: as §1
# [5] = tested on: ivy-leaved morning glory (Ipomoea hederacea); test: Test G Pre-Emergence Protocol; settings: Ipomoea, pre-emergence, 312 h, evaluated after 13 days; for pest or weed control at 15.625 g/ha: 15.625 g ai/ha, read-out: Morning-glory, Ivy-leaved damage rating (100=total damage to plant; 0=no damage to plant); for pest or weed control at 62.5 g/ha: 62.5 g ai/ha, 100=total damage to plant, 0=no damage to plant, read-out: plant damage rating, Morningglory, Ivy-leaved; for pest or weed control at 250 g/ha: 250 g ai/ha, read-out: Morningglory, Ivy-leaved damage rating (100=total damage to plant; 0=no damage to plant)
# Summary of the method: as §1
# [6] = tested on: velvetleaf (Abutilon theophrasti); test: Test G Pre-Emergence Protocol; settings: Abutilon theophrasti, pre-emergence, 312 h, evaluated after 13 days; for pest or weed control at 15.625 g/ha: 15.625 g ai/ha; for pest or weed control at 15.625 g/ha / pest or weed control at 250 g/ha: read-out: Velvetleaf damage rating (100=total damage to plant; 0=no damage to plant); for pest or weed control at 62.5 g/ha: 62.5 g ai/ha, 100=total damage to plant, 0=no damage to plant, read-out: plant damage rating, Velvetleaf; for pest or weed control at 250 g/ha: 250 g ai/ha
# Summary of the method: as §1
# corn (Zea mays) [7] = test: Test G Post-Emergence Protocol; settings: Zea mays, post-emergence, 312 h; for plant injury at 15.625 g/ha: 15.625 g ai/ha, evaluated after 13 days (100=total damage to plant; 0=no damage to plant), read-out: Corn damage rating; for plant injury at 62.5 g/ha: 62.5 g ai/ha, read-out: Corn damage rating (100=total damage to plant; 0=no damage to plant); for plant injury at 62.5 g/ha / plant injury at 250 g/ha: evaluated after 13 days; for plant injury at 250 g/ha: 250 g ai/ha, read-out: damage to plant, Corn (100=total damage to plant; 0=no damage to plant)
# Summary of the method: (§2)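 Damage was rated 13 days after treatment from 0 (none) to 100 (plant killed). Compound was applied as a spray at 15.625, 62.5 or 250 g/ha in 50:50 acetone/water containing 0.5% Tween 20, onto 8-day-old potted plants kept in a glasshouse (24/16 °C, 14 h light, 65% humidity).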
# [8] = tested on: barnyardgrass (Echinochloa crus-galli); test: Test G Post-Emergence Protocol; settings: Echinochloa crus-galli, post-emergence, 312 h; for pest or weed control at 15.625 g/ha: 15.625 g ai/ha, evaluated after 13 days (100=total damage to plant; 0=no damage to plant), read-out: Barnyardgrass damage rating; for pest or weed control at 62.5 g/ha: 62.5 g ai/ha, read-out: Barnyardgrass damage rating (100=total damage to plant; 0=no damage to plant); for pest or weed control at 62.5 g/ha / pest or weed control at 250 g/ha: evaluated after 13 days; for pest or weed control at 250 g/ha: 250 g ai/ha, read-out: damage to plant, Barnyardgrass (100=total damage to plant; 0=no damage to plant)
# Summary of the method: as §2
# [9] = tested on: redroot pigweed (Amaranthus retroflexus); test: Test G Post-Emergence Protocol; settings: Amaranthus retroflexus, post-emergence, 312 h; for pest or weed control at 15.625 g/ha: 15.625 g ai/ha, evaluated after 13 days (100=total damage to plant; 0=no damage to plant), read-out: Pigweed, Redroot damage rating; for pest or weed control at 62.5 g/ha: 62.5 g ai/ha, read-out: Pigweed, Redroot damage rating (100=total damage to plant; 0=no damage to plant); for pest or weed control at 62.5 g/ha / pest or weed control at 250 g/ha: evaluated after 13 days; for pest or weed control at 250 g/ha: 250 g ai/ha, read-out: damage to plant, Pigweed, Redroot (100=total damage to plant; 0=no damage to plant)
# Summary of the method: as §2
# [10] = tested on: giant foxtail (Setaria faberi); test: Test G Post-Emergence Protocol; settings: Setaria faberi, post-emergence, 312 h; for pest or weed control at 15.625 g/ha: 15.625 g ai/ha, evaluated after 13 days (100=total damage to plant; 0=no damage to plant), read-out: Foxtail, Giant damage rating; for pest or weed control at 62.5 g/ha: 62.5 g ai/ha, read-out: Foxtail, Giant damage rating (100=total damage to plant; 0=no damage to plant); for pest or weed control at 62.5 g/ha / pest or weed control at 250 g/ha: evaluated after 13 days; for pest or weed control at 250 g/ha: 250 g ai/ha, read-out: damage to plant, Foxtail, Giant (100=total damage to plant; 0=no damage to plant)
# Summary of the method: as §2
# [11] = tested on: ivy-leaved morning glory (Ipomoea hederacea); test: Test G Post-Emergence Protocol; settings: Ipomoea, post-emergence, 312 h; for pest or weed control at 15.625 g/ha: 15.625 g ai/ha, evaluated after 13 days (100=total damage to plant; 0=no damage to plant), read-out: Morningglory, Ivy-leaved damage rating; for pest or weed control at 62.5 g/ha: 62.5 g ai/ha, read-out: Morningglory, Ivy-leaved damage rating (100=total damage to plant; 0=no damage to plant); for pest or weed control at 62.5 g/ha / pest or weed control at 250 g/ha: evaluated after 13 days; for pest or weed control at 250 g/ha: 250 g ai/ha, read-out: damage to plant, Morningglory, Ivy-leaved (100=total damage to plant; 0=no damage to plant)
# Summary of the method: as §2
# [12] = tested on: velvetleaf (Abutilon theophrasti); test: Test G Post-Emergence Protocol; settings: Abutilon theophrasti, post-emergence, 312 h; for pest or weed control at 15.625 g/ha: 15.625 g ai/ha, evaluated after 13 days (100=total damage to plant; 0=no damage to plant), read-out: Velvetleaf damage rating; for pest or weed control at 62.5 g/ha: 62.5 g ai/ha, read-out: Velvetleaf damage rating (100=total damage to plant; 0=no damage to plant); for pest or weed control at 62.5 g/ha / pest or weed control at 250 g/ha: evaluated after 13 days; for pest or weed control at 250 g/ha: 250 g ai/ha, read-out: damage to plant, Velvetleaf (100=total damage to plant; 0=no damage to plant)
# Summary of the method: as §2
Compound,plant injury at 15.625 g/ha (corn (Zea mays) [1]) [%],plant injury at 62.5 g/ha (corn (Zea mays) [1]) [%],plant injury at 250 g/ha (corn (Zea mays) [1]) [%],pest or weed control at 15.625 g/ha [2] [%],pest or weed control at 62.5 g/ha [2] [%],pest or weed control at 250 g/ha [2] [%],pest or weed control at 15.625 g/ha [3] [%],pest or weed control at 62.5 g/ha [3] [%],pest or weed control at 250 g/ha [3] [%],pest or weed control at 15.625 g/ha [4] [%],pest or weed control at 62.5 g/ha [4] [%],pest or weed control at 250 g/ha [4] [%],pest or weed control at 15.625 g/ha [5] [%],pest or weed control at 62.5 g/ha [5] [%],pest or weed control at 250 g/ha [5] [%],pest or weed control at 15.625 g/ha [6] [%],pest or weed control at 62.5 g/ha [6] [%],pest or weed control at 250 g/ha [6] [%],plant injury at 15.625 g/ha (corn (Zea mays) [7]) [%],plant injury at 62.5 g/ha (corn (Zea mays) [7]) [%],other results
CN1C[C@@H](c2ccc(C(F)(F)F)cc2)[C@H](C(=O)Nc2cccc(Cl)n2)C1=O (racemic) [Compound 1606],0,0,10,0,20,60,0,0,0,0,60,90,0,0,10,0,0,0,0,0,plant injury at 250 g/ha (corn (Zea mays) [7]): 0%; pest or weed control at 15.625 g/ha [8]: 20%; pest or weed control at 62.5 g/ha [8]: 40%; pest or weed control at 250 g/ha [8]: 50%; pest or weed control at 15.625 g/ha [9]: 40%; pest or weed control at 62.5 g/ha [9]: 40%; pest or weed control at 250 g/ha [9]: 100%; pest or weed control at 15.625 g/ha [10]: 40%; pest or weed control at 62.5 g/ha [10]: 70%; pest or weed control at 250 g/ha [10]: 80%; pest or weed control at 15.625 g/ha [11]: 0%; pest or weed control at 62.5 g/ha [11]: 0%; pest or weed control at 250 g/ha [11]: 30%; pest or weed control at 15.625 g/ha [12]: 0%; pest or weed control at 62.5 g/ha [12]: 0%; pest or weed control at 250 g/ha [12]: 60%
CN1C[C@@H](c2ccc(C(F)(F)F)cc2)[C@H](C(=O)Nc2nnc(C(F)(F)F)s2)C1=O (racemic) [Compound 1548],0,0,0,0,0,0,0,0,0,0,0,0,0,0,0,0,0,0,0,0,plant injury at 250 g/ha (corn (Zea mays) [7]): 0%; pest or weed control at 15.625 g/ha [8]: 0%; pest or weed control at 62.5 g/ha [8]: 0%; pest or weed control at 250 g/ha [8]: 0%; pest or weed control at 15.625 g/ha [9]: 0%; pest or weed control at 62.5 g/ha [9]: 0%; pest or weed control at 250 g/ha [9]: 0%; pest or weed control at 15.625 g/ha [10]: 0%; pest or weed control at 62.5 g/ha [10]: 0%; pest or weed control at 250 g/ha [10]: 0%; pest or weed control at 15.625 g/ha [11]: 0%; pest or weed control at 62.5 g/ha [11]: 0%; pest or weed control at 250 g/ha [11]: 0%; pest or weed control at 15.625 g/ha [12]: 0%; pest or weed control at 62.5 g/ha [12]: 0%; pest or weed control at 250 g/ha [12]: 0%
